Entries after “also recorded” stand apart in the source; their conditions may differ.
Tests used:
TrkB = biological target: T1, TrkB (Mus musculus, UniProt P15209, F616A); test: TrkB inhibition in NTrk2 tmlDdg/J mutant mice; assay type: in vivo; settings: 1NMPP1 25 μM injected in NTrk2 tmlDdg/J mutant mice; preliminary
T1 construct: from tissue; host or cells: NTrk2 tm1Ddg/J knock-in mutant mice (in vivo; intestine)

[1] = test system: premature human intestine obtained after surgery for NEC; test: Human NEC intestine treated ex vivo with LPS; assay type: cell-based
Procedure: (§1) FIGS. 5A-5K. BDNF restrains TLR4 signaling in the intestinal epithelium. 5A) enterocytes. 5B) In wild-type mice, BDNF (1 μg/kg) LPS (5 mg/kg) injection for 6 hrs. 5C) qRT-PCR of human ileum freshly harvested from patient with NEC treated with LPS (25 μg/kg) for 6 hr. 5D-H) H&E images. 5I) BDNF ELISA. 5J-K) TNFα and NEC severity. *p<0.05 by ANOVA; 5-10 mice per experiment.
(§2) Fifth, wild-type mice with NEC show reduced levels of BDNF in the intestinal mucosa (FIG. 5H-I), consistent with the reduction in glia.
(§3) The inventors next embarked on a strategy to identify novel therapeutic agents for NEC based upon their ability to enhance glial function and thus reduce TLR4 signaling and NEC. To do so, several libraries of FDA approved compounds were screened against the rat enteric glia cell line EGC/PK060399 (ATCC® CRL-2690™) for their ability to induce BDNF release, then the hits were validated by their ability to reduce NEC in mice. The lead hit, shown in FIG. 6A, is a C13H11NO5 compound with MW 261.23Da, herein named “J11”.

TLR4 signaling [2] = test: LPS-mediated TLR4 signaling in the intestine of mice; assay type: in vivo
Procedure: as §1, §2, §3
(§4) The inventors sought to determine how BDNF inhibits TLR4 and thus attenuates NEC. BDNF is known to signal principally via its receptor, namely tropomyosin-related kinase B (TrkB), which the inventors now show to be present in the intestinal epithelium (FIG. 7). The inventors have now knocked down TrkB in IEC-6 enterocytes (FIG. 7A) using lentiviral delivery of TrkB shRNA.

[3] = test system: rat enteric glia cell line EGC/PK060399 (ATCC CRL-2690); test: BDNF release from cultured enteric glia cell line (BDNF ELISA); assay type: cell-based
Procedure: FIG. 16 is a time response curve showing the BDNF secretion by enteric glial cells stimulated with 10 μM J11. The enteric glial cells (EGC/PK060399egfr, ATCC® CRL-2690™) were treated with 10 μM J11, and the conditional medium were harvested at 2, 6, 24 and 48 hours after treatment. The BDNF secretion was quantified using BDNF ELISA kit following the manufacturer's protocol.
as §3
A dose-response curve was established for oxolinic acid (J11) in inducing BDNF release in the enteric glia cell line EGC/PK060399, and will be used evaluate a safety profile based upon its mean effective dose in mice. […] The BDNF secretion was quantified using BDNF ELISA kit following the manufacturer's protocol. The amount of BDNF was time dependent with the greatest secretion after 48 hours of exposure.

[4] = test system: enteric glial cells (EGC/PK060399egfr, ATCC CRL-2690); test: BDNF mRNA expression by enteric glial cells (qPCR); assay type: cell-based, rat; settings: 10 μM and 20 μM J11
Procedure: FIG. 17 depicts a time response curve showing the BDNF mRNA expression by enteric glial cells stimulated with 10 μM and 20 μM J11. The enteric glial cells (EGC/PK060399egfr, ATCC® CRL-2690™) were treated with 10 μM and 20 μM J11, and the enteric glial cells were harvested at 2, 6, 24 and 48 hours after treatment.
The enteric glial cells (EGC/PK060399egfr, ATCC® CRL-2690™) were treated with 10 μM and 20 μM J11, and the enteric glial cells were harvested at 2, 6, 24 and 48 hours after treatment. Total RNA was isolated using the RNeasy mini kit following the manufacturer's protocol. Complementary DNA was synthesized from 0.5 μg RNA using M-MLV reverse transcriptase. The qPCR analysis was performed with the Bio-Rad CFX96 Real-Time System (Biorad, Hercules, Calif.). The relative BDNF mRNA expression was normalized against the expression of housekeeping gene RPLO.

NEC in mice = test: Experimental NEC model in mice; assay type: in vivo
Procedure: In the inventors' NEC model, 7d old mice are gavaged with a combination of Similac Advance infant formula (Abbott Nutrition):Esbilac canine milk replacer (PetAb) in a 2:1 ratio at 50 μl/g every 3 hours, and subjected to 10 minutes of hypoxia (5% O2 95% N2 in a Billups-Rothenberg chamber) twice daily for four days, and then orally gavaged dysbiotic bacteria (1×10^5 cfu/ml) obtained from the stool of a patient with severe NEC (see our recent JCI paper for more model details^7). This protocol induces patchy intestinal necrosis and mucosal disruption which mimics human NEC in wild-type mice, but not in either TLR4^ΔIEC or TLR4^−/− littermates.

[5] = test system: intestine of wild type mice; test: BDNF release in the intestine after oral administration; assay type: in vivo; settings: oral administration 20 mg/kg, wild type mice (FIG. 6C)
TLR4 signaling [6] = test: LPS-induced cytokine expression in cultured enterocytes or enteroids; assay type: cell-based, mice; settings: BDNF 1 μg/ml
Description: as §2, §4

T1 sequence (P15209 32-821 F616A): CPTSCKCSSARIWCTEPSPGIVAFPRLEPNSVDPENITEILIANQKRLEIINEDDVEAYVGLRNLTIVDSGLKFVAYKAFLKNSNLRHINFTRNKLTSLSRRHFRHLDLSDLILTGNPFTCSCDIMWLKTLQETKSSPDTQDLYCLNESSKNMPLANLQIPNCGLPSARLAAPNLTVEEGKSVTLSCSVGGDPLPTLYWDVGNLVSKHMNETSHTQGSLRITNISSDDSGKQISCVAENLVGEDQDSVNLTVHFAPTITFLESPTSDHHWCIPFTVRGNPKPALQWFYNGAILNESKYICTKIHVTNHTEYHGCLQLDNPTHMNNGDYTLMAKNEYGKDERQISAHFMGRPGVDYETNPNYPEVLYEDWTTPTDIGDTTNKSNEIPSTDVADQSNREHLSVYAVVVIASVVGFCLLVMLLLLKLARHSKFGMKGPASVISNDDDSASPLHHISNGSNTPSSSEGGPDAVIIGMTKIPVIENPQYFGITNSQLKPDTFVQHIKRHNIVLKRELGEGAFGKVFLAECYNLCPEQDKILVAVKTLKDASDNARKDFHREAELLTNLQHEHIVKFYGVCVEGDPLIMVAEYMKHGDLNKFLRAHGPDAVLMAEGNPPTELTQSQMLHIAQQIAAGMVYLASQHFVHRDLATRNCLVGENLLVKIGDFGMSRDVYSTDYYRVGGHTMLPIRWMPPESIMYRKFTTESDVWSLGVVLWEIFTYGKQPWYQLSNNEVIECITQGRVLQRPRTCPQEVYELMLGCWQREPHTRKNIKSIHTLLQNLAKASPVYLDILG

CC(C)(C)n1nc(Cc2cccc3ccccc23)c2c(N)ncnc21 [1NMPP1]
TrkB inhibition (TrkB): preliminarily achieved TrkB inhibition

CCn1cc(C(=O)O)c(=O)c2cc3c(cc21)OCO3 [J11, oxolinic acid]
TLR4 signaling / inflammation in human NEC intestine ([1]; J11 10 μM, LPS 25 μg/ml, ex vivo): reduced TLR4 signaling; also recorded: reduces TLR4 signaling in human tissue; also recorded: reduces inflammation in human NEC tissue ex vivo
BDNF release in human NEC intestine ([1]; J11 10 μM, ex vivo): significantly induced BDNF release
LPS-mediated TLR4 signaling in the intestine (TLR4 signaling [2]; LPS 5 mg/kg, wild type mice (FIG. 6D)): inhibited LPS (5 mg/kg)-mediated TLR4 signaling
time of greatest BDNF secretion ([3]; 10 μM J11, conditional medium harvested at 2, 6, 24 and 48 hours, BDNF ELISA (FIG. 16)): 48 h
BDNF release from enteric glia ([3]; cultured enteric glia (FIG. 6B)): induced BDNF release
time of maximal BDNF mRNA expression ([4]; harvested at 2, 6, 24 and 48 hours): 24 h
BDNF mRNA expression ([4]; normalized to RPLO (FIG. 17)): stimulated
NEC severity (NEC in mice; administered orally 20 mg/kg/day to 7d old mice, 20 mg/kg/day): significantly reduced NEC severity; also recorded: prevents NEC in mice
BDNF release in the intestine [5]: induced BDNF release

B1: BDNF: brain derived neurotrophic factor, enteric glia-derived peptide signalling through TrkB (protein, UniProt P23560 19-247, looked up)
Neurotrophic factor BDNF …: APMKEANIRGQGGLAYPGVRTHGTLESVNGPKAGSRGLTSLADTFEHVIEELLDEDQKVRPNEENNKDADLYTSRVMLSSQVPLEPPLLFLLEEYKNYLDAANMSMRVRRHSDPARRGELSVCDSISEWVTAADKKTAVDMSGGTVTVLEKVPVSKGQLKQYFYETKCNPMGYTKEGCRGIDKRHWNSQCRTTQSYVRALTMDSKKRIGWRFIRIDTSCVCTLTIKRGR
TLR4-induced cytokine expression (TLR4 signaling [6]; LPS 50 μg/ml, cultured enterocytes or enteroids from wild-type mice (FIG. 5A)): reduced TLR4 signaling
LPS induced IL-6 expression after TrkB knockdown (TLR4 signaling [6]; IEC-6 cells with TrkB shRNA, LPS 50 μg/ml (FIG. 7A)): knockdown of TrkB prevented BDNF (1 μg/ml)-mediated protection; also recorded: prevents BDNF protection of LPS TLR4-induced cytokine expression
protection from LPS in ileum from NEC patients ([1]; ileum from NEC patients treated with BDNF (FIG. 5C)): protection was seen
TLR4-mediated expression of pro-inflammatory cytokines in the intestinal mucosa (TLR4 signaling [2]; BDNF 1 μg/kg injection, wild type mice, 6h after LPS injection (FIG. 5B)): significantly reduced TLR4-mediated expression of the pro-inflammatory cytokines
LPS-mediated TNF induction in mice deficient in TrkB (TLR4 signaling [2]; newborn mice, TrkB shRNA by oral gavage, BDNF 1 μg/kg (FIG. 7B)): no protection of LPS-mediated TNF induction by BDNF
intestinal TNFα in glia KO mouse (TLR4 signaling [2]; qRT-PCR, glia KO mouse (FIG. 3B)): reversed by BDNF
NEC in mice lacking TrkB in the intestinal epithelium (NEC in mice; TrkB-lacking intestinal epithelium, BDNF administration): not protected by BDNF administration
NEC severity in the glial-KO mouse model (NEC in mice; glial-KO mice, BDNF 1 μg/kg (FIGS. 5H-K)): significantly reversed the severe NEC; also recorded: reversed by the administration of BDNF
NEC development (NEC in mice; oral BDNF 1 μg/kg on each day of the model, histology and inflammatory cytokines): significantly protected against NEC development
